Assay results reported in US20260364076A1 (Amgen Inc., priority 2022, published 2026).
Where two headings read alike, the source gives them in different places.

What was measured:
[1] = system: cancer with the KRAS G12C mutation; details: cited from earlier work
[2] = system: cells and tumors harboring KRAS G12C mutations; details: cited from earlier work
[3] = system: extracellular signal-regulated kinase (ERK); details: preclinical studies; cited from earlier work
[4] = in vivo; cited from earlier work
KRAS^G12C = details: cited from earlier work
[5] = Drug-drug interaction study with itraconazole (CYP3A4 inhibitor): sotorasib plasma PK in healthy subjects; details: human, in vivo, po, 360 mg; for AUC(0-inf): AUCinf (GLSM); for AUC(0-t): AUClast (GLSM)
Description: (§1) Safety and tolerability monitoring were performed throughout the study.

[6] = Safety and tolerability in single-dose hepatic impairment study; format: in vivo, human
Description: (§2) This Example describes an open-label single-dose study of sotorasib that was conducted in healthy subjects and subjects with moderate or severe hepatic impairment (see, Inclusion/Exclusion criteria):
(§3) The primary objective of the study was to evaluate the pharmacokinetics (PK) of a single oral dose of sotorasib administered in subjects with moderate or severe hepatic impairment compared to subjects with normal hepatic function. The secondary objective of the study was to evaluate the safety and tolerability of sotorasib administered in subjects with moderate or severe hepatic impairment compared to subjects with normal hepatic function.
(§4) Subjects meeting eligibility requirements were assigned to 1 of 3 groups: Group 1—Normal function (No impairment, n=6-12); Group 2—Moderate impairment (Child-Pugh Class B, n=6-8); Group 3—Severe impairment (Child-Pugh Class C, n=6-8). The classification is based on Child-Pugh scores as per Figg et al. (1995).

CYP3A = details: hepatic; cited from earlier work
KRAS p.G12C tumors = details: mice bearing KRAS p.G12C tumors; cited from earlier work
[7] = Drug-drug interaction study with rifampin (CYP3A4 inducer): sotorasib plasma PK in healthy subjects; format: in vivo, human; details: for Cmax / AUC(0-inf) / AUC(0-t): human, plasma, 960 mg; for AUC(0-inf): read-out: AUCinf (GLSM); for AUC(0-t): read-out: AUClast (GLSM)
Description: as §1

[8] = Single-dose PK study in subjects with moderate or severe hepatic impairment compared to healthy subjects; format: in vivo, human
Description: as §2, §3, §4
The plasma PK parameters of sotorasib will be calculated using standard noncompartmental methods.
The data from hepatically impaired subjects (Group 2 and 3; tests) and control subjects (normal hepatic function [Group 1]; reference) will be included in the analysis. Geometric mean ratios (Test/Reference) for Cmax and AUC values and associated 90% confidence intervals will be estimated.
Additional parameters may be calculated, and sotorasib metabolites may be analyzed. PK parameters for the metabolites, if calculated, will not be subject to inferential statistical analysis. Specific details will be presented in the Statistical Analysis Plan for this study.

[9] = 360 mg sotorasib + 200 mg itraconazole (Test), day 6, healthy subjects
[10] = 360 mg sotorasib alone (Reference), day 1, single oral dose, healthy subjects
[11] = 960 mg sotorasib + 600 mg rifampin on day 3 (Test), single-dose rifampin
[12] = 960 mg sotorasib + 600 mg rifampin on day 18 (Test), multiple daily dosing of rifampin
[13] = 960 mg sotorasib on day 1 (Reference), healthy subjects

Cmax [5]: 6130 ng/mL | Tmax [5]: 0.51 h | AUC(0-inf) [5, 9]: 31000 ng·h/mL | AUC(0-inf) [5, 10]: 24600 ng·h/mL | AUC(0-t) [5, 9]: 30700 ng·h/mL | AUC(0-t) [5, 10]: 22700 ng·h/mL | Cmax [7, 11]: 5340 ng/mL | AUC(0-inf) [7, 11]: 19600 ng·h/mL | AUC(0-t) [7, 11]: 19400 ng·h/mL | Cmax [7, 12]: 4110 ng/mL | AUC(0-inf) [7, 12]: 12400 ng·h/mL | AUC(0-t) [7, 12]: 12300 ng·h/mL | AUC(0-inf) [7, 13]: 25600 ng·h/mL | AUC(0-t) [7, 13]: 25400 ng·h/mL | half-life ([8]; human, in vivo, po, 960 mg, read-out: half-life (t1/2), arithmetic mean): 6.42 to 8.18 h | Tmax ([8]; human, in vivo, po, 960 mg, read-out: median tmax): 1 to 1.47 h
Compound: C=CC(=O)N1CCN(c2nc(=O)n(-c3c(C)ccnc3C(C)C)c3nc(-c4c(O)cccc4F)c(F)cc23)[C@@H](C)C1 (atropisomer, axis not shown; (M)) [Sotorasib, 6-fluoro-7-(2-fluoro-6-hydroxyphenyl)-(1M)-1-[4-methyl-2-(propan-2-yl)pyridin-3-yl]-4-[(2S)-2-methyl-4-(prop-2-enoyl)piperazin-1-yl]pyrido[2,3-d]pyrimidin-2(1H)-one]
tumor response ([1]; NSCLC, colorectal, pancreatic, appendiceal, endometrial, unknown primary, ampullary, gastric, small bowel, sinonasal, bile duct cancer, or melanoma): stable disease (SD) or partial response (PR) | disease control rate (95% CI) ([1]; colorectal cancer, 42 patients): 73.8% | disease control rate (95% CI) ([1]; non-small cell lung cancer, 59 patients): 88.1% | disease control rate (95% CI) ([1]; other tumor types, 28 patients): 75.0% | growth and regression of cells and tumors [2]: inhibition of growth and regression of cells and tumors harboring KRAS G12C mutations | inhibition of phosphorylation of ERK [3]: inhibited nearly all detectable phosphorylation | route of elimination [4]: mainly eliminated via the fecal route | inhibition of KRAS^G12C (KRAS^G12C): specifically and irreversibly inhibits | findings in clinical laboratory evaluations, physical examinations, ECGs, and vital signs ([6]; 960 mg sotorasib single dose): no clinically meaningful findings | serious adverse events or treatment-emergent adverse events leading to discontinuation ([6]; 960 mg sotorasib single dose): no serious adverse events or treatment-emergent adverse events leading to discontinuation | adverse event severity ([6]; all adverse events, 960 mg sotorasib): mild in severity | resolution of adverse events ([6]; by end of study): All the adverse events resolved by the end of study | treatment-emergent adverse events considered related to sotorasib ([6]; number of events, 20 subjects, Investigator assessment): 5 | treatment-emergent adverse events ([6]; number of events, 20 subjects, single dose 960 mg sotorasib): 9 | safety and tolerability ([6]; single doses, normal hepatic function, moderate or severe hepatic impairment): safe and well-tolerated | metabolizing enzyme (CYP3A): mainly metabolized by the hepatic enzymes CYP3A | tumor regression (KRAS p.G12C tumors): durable complete tumor regression | Geometric mean exposures, based on AUC and Cmax ([7]; following coadministration with rifampin on days 3 and 18): lower following coadministration with rifampin on days 3 and 18 | PK and safety profile ([8]; moderate or severe hepatic impairment vs healthy subjects): clinically sufficiently similar to the PK and safety profile of healthy subjects | half-life (t1/2), trend across hepatic function groups ([8]; normal, moderate or severe hepatic impairment, 960 mg sotorasib): no apparent trend related to hepatic impairment
